As a reminder, the Emax is the greatest response seen or fitted, relative to the assay's reference. The term EC50 denotes the midpoint of the concentration-response curve. Read a high EC50 as a less potent agent.

This passage reports Emax and EC50 results from patent US10287305B2, “Substituted piperidine compound and use thereof” (Takeda Pharmaceutical Company Limited, priority 2016, dated 2019).

This assay deals with human orexin type 2 receptor (hOX2R) (Homo sapiens (Human), UniProt O43614). Description: Measurement of orexin type 2 receptor agonist activity (Experimental Example 2-1, FLIPR TETRA, intracellular Ca2+). The assay is classed as cell-based. To be noted: CHO dhfr- cells expressing hOX2R; for Emax: read-out: Emax (%); for Emax at 30 µM: value at 30 uM concentration, orexin B as full agonist = 100%.
human orexin type 2 receptor (hOX2R), sequence (O43614 whole entry): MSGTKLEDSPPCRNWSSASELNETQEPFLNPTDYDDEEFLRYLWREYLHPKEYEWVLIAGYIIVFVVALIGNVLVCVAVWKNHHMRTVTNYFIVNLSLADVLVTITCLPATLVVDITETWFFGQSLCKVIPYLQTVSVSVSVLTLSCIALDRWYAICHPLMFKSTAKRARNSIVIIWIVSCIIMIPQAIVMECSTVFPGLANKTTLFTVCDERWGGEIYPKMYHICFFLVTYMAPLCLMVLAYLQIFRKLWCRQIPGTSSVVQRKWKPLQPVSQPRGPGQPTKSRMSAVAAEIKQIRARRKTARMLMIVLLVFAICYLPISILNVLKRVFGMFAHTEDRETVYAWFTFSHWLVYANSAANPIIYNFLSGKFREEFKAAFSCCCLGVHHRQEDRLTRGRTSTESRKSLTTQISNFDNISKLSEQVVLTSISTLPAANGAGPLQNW

[1] abbreviates: agonist activity, 10 nM human orexin B = 100%.

On to `CS(=O)(=O)N[C@H]1CCCN(C(=O)C2CC2)[C@H]1CO[C@H]1CC[C@@H](C)CC1` (relative stereo) [Example 197, N-(cis-1-(cyclopropylcarbonyl)-2-(((cis-4-methylcyclohexyl)oxy)methyl)piperidin-3-yl)methanesulfonamide], for which the maximum response (Emax) (FLIPR TETRA, Fluo-4AM) was determined as 90%.

With `CS(=O)(=O)N[C@H]1CCCN[C@H]1CO[C@H]1CC[C@@H](c2cc(F)cc(F)c2F)CC1` [Example 239, N-((2R,3S)-2-(((cis-4-(2,3,5-trifluorophenyl)cyclohexyl)oxy)methyl)piperidin-3-yl)methanesulfonamide], for the setting “FLIPR TETRA, Fluo-4AM”, the response was half-maximal at 0.28 µM (EC50) and the Emax was 102%.

Take `CC(=O)N1CCC[C@H](NS(C)(=O)=O)[C@@H]1CO[C@H]1CC[C@@H](c2cccc(F)c2)CC1` [Example 147, N-((2R,3S)-1-acetyl-2-(((cis-4-(3-fluorophenyl)cyclohexyl)oxy)methyl)piperidin-3-yl)methanesulfonamide]: under “FLIPR TETRA, Fluo-4AM”, the EC50 is 0.01 µM and the Emax was found to be 100%.

`CS(=O)(=O)N[C@H]1CCCN[C@H]1CO[C@H]1CC[C@@H](c2c(F)cccc2F)CC1` [Example 13, N-((2R,3S)-2-(((cis-4-(2,6-difluorophenyl)cyclohexyl)oxy)methyl)piperidin-3-yl)methanesulfonamide] yielded an Emax at 30 µM of 115%. For the same molecule, the EC50 under setting [1] amounted to 0.13 µM.

For the molecule `CC(=O)N1CCC[C@H](NS(C)(=O)=O)[C@@H]1CO[C@H]1CC[C@@H](c2ccccc2C(F)F)CC1` [Example 323, N-((2R,3S)-1-acetyl-2-(((cis-4-(2-(difluoromethyl)phenyl)cyclohexyl)-oxy)methyl)piperidin-3-yl)methanesulfonamide], for the setting “FLIPR TETRA, Fluo-4AM”, the midpoint of the response, the EC50, lay at 0.096 µM and the Emax came out at 95%.

`CC(=O)N1CCC[C@H](NS(C)(=O)=O)[C@@H]1CO[C@H]1CC[C@@H](C(C)C)CC1` [Example 70, N-((2R,3S)-1-acetyl-2-(((cis-4-isopropylcyclohexyl)oxy)methyl)piperidin-3-yl)methanesulfonamide] came in with an Emax at 30 µM of 98%. Under setting [1], this molecule returned a concentration for a half-maximal effect (EC50) of 0.097 µM.

Take `CS(=O)(=O)N[C@H]1CCCN(C(=O)C(F)F)[C@H]1CO[C@H]1CC[C@@H](c2ccccc2)CC1` (relative stereo) [Example 139, N-(cis-1-(difluoroacetyl)-2-(((cis-4-phenylcyclohexyl)oxy)methyl)piperidin-3-yl)methanesulfonamide]: the Emax (FLIPR TETRA, Fluo-4AM) was found to be 103%.

In the case of `CC(OC(=O)N1CCC[C@H](NS(C)(=O)=O)[C@@H]1COC1CCN(c2ncccn2)CC1)C(F)(F)F` (relative stereo) [Example 313, 1,1,1-trifluoropropan-2-yl cis-3-((methylsulfonyl)amino)-2-(((1-(pyrimidin-2-yl)piperidin-4-yl)oxy)methyl)piperidine-1-carboxylate], under “FLIPR TETRA, Fluo-4AM”, the EC50 was 0.27 µM and the Emax came to 95%.

Consider `CCNC(=O)N1CCC[C@H](NS(C)(=O)=O)[C@@H]1COC1CCC(c2ccccc2)C1` (relative stereo) [Example 339, cis-N-ethyl-3-((methylsulfonyl)amino)-2-(((3-phenylcyclopentyl)oxy)methyl)-piperidine-1-carboxamide], for which, for the setting “FLIPR TETRA, Fluo-4AM”, the EC50 was 0.011 µM and the Emax came to 101%.

Take `CS(=O)(=O)N[C@H]1CCCN(C(=O)CO)[C@H]1CO[C@H]1CC[C@@H](c2ccccc2)CC1` [Example 185, N-((2R,3S)-1-glycoloyl-2-(((cis-4-phenylcyclohexyl)oxy)methyl)piperidin-3-yl)methanesulfonamide]: under “FLIPR TETRA, Fluo-4AM”, the EC50 worked out at 0.021 µM and the Emax is 98%.

For `CS(=O)(=O)N[C@H]1CCCN(C(=O)C2CC2)[C@H]1CO[C@H]1CC[C@@H](c2cc(F)cc(F)c2)CC1` [Example 242, N-((2R,3S)-1-(cyclopropylcarbonyl)-2-(((cis-4-(3,5-difluorophenyl)cyclohexyl)oxy)methyl)piperidin-3-yl)methanesulfonamide], under “FLIPR TETRA, Fluo-4AM”, a half-maximal response (EC50) required 0.00088 µM and the Emax came to 99%.
